The assay deals with T1, PP2A (Bos taurus, UniProt P67774).
T1 construct: gene PPP2CA
The assay is described as follows: colorimetric pNPP phosphatase assay with purified enzyme, […] min pre-incubation. In kind it is biochemical.

T1 sequence (P67774 whole entry): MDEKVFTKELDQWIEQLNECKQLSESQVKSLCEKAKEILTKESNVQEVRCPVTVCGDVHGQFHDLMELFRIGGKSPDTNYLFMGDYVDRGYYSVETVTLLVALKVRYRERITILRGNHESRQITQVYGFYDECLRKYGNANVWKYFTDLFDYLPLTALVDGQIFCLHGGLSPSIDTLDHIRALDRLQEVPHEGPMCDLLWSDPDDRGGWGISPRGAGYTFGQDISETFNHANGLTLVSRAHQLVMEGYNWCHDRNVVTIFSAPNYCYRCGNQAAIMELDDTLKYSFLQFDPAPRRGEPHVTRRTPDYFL

On to `O=C(O)c1cc(=O)c2c(OCC(O)COc3cccc4oc(C(=O)O)cc(=O)c34)cccc2o1` [cromoglycate], for which the IC50 was roughly 1.7 nM.

On to `CCCc1c2oc(C(=O)O)cc(=O)c2cc2c(=O)cc(C(=O)O)n(CC)c12` [nedocromil], for which the half-inhibitory concentration (IC50) was roughly 0.65 nM.

Values taken from paper PMC2888050, “Cromoglycate drugs suppress eicosanoid generation in U937 cells by promoting the release of Anx-A1” (Biochemical Pharmacology, 2009).
